Several values for one entry are separate records, joined by “and”; a condition that tells them apart may be missing. Equal values may be shown once. Inconclusive results and toxic doses are left out.
System: CD2F1 mice, L1210 leukemia ip, survival T/C
Assay: NCI In Vivo Anticancer Drug Screen. Data for tumor model L1210 Leukemia (intraperitoneal) in CD2F1 (CDF1) mice
Details: higher = longer survival
Procedure, shortened: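 Implant tumor; dose compound or vehicle; measure endpoint in both groups; report treated divided by control.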

[1] = endpoint: mean survival time, dose: 25.0 mg/kg/injection, schedule: Q04DX003 (ip), vehicle: saline with Tween-80
[2] = endpoint: mean survival time, dose: 50.0 mg/kg/injection, schedule: Q04DX003 (ip), vehicle: saline with Tween-80
[3] = endpoint: mean survival time, dose: 100.0 mg/kg/injection, schedule: Q04DX003 (ip), vehicle: saline with Tween-80
[4] = endpoint: mean survival time, dose: 100.0 mg/kg/injection, schedule: Q04DX002 (ip), vehicle: saline with Tween-80
[5] = endpoint: mean survival time, dose: 200.0 mg/kg/injection, schedule: Q04DX002 (ip), vehicle: saline with Tween-80
[6] = endpoint: mean survival time, dose: 200.0 mg/kg/injection, schedule: Q04DX003 (ip), vehicle: saline
[7] = endpoint: mean survival time, dose: 200.0 mg/kg/injection, schedule: Q04DX003 (ip), vehicle: saline with Tween-80
[8] = endpoint: mean survival time, dose: 100.0 mg/kg/injection, schedule: Q01DX009 (ip), vehicle: saline with Tween-80
[9] = endpoint: mean survival time, dose: 200.0 mg/kg/injection, schedule: Q01DX009 (ip), vehicle: saline with Tween-80
[10] = endpoint: mean survival time, dose: 400.0 mg/kg/injection, schedule: Q01DX009 (ip), vehicle: saline with Tween-80
[11] = endpoint: mean survival time, dose: 400.0 mg/kg/injection, schedule: Q04DX003 (ip), vehicle: saline with Tween-80

COC(=O)/C(=C1/OC(=O)C(c2ccccc2)=C1O)c1ccccc1
T/C [1]: 91 % of control
T/C [2]: 100 % of control
T/C [3]: 105 % of control

CC1(O)CCC(C)(O)CC1 (stereo not drawn)
T/C (endpoint: mean survival time, dose: 25.0 mg/kg/injection, schedule: Q04DX002 (ip), vehicle: saline with Tween-80): 107 % of control and 103 % of control
T/C (endpoint: mean survival time, dose: 50.0 mg/kg/injection, schedule: Q04DX002 (ip), vehicle: saline with Tween-80): 95 % of control and 98 % of control
T/C [4]: 107 % of control and 98 % of control
T/C [5]: 103 % of control

CCCCCCCCC(=O)CC
T/C (endpoint: mean survival time, dose: 100.0 mg/kg/injection, schedule: Q04DX003 (ip), vehicle: saline): 98 % of control
T/C [6]: 98 % of control
T/C (endpoint: mean survival time, dose: 400.0 mg/kg/injection, schedule: Q04DX003 (ip), vehicle: saline): 93 % of control

CCN1CCCC(Nc2nc(Nc3ccc(Cl)c(Cl)c3)nc3ccc(Cl)cc23)C1 (stereo not drawn)
T/C [3]: 89 % of control
T/C [7]: 94 % of control

COc1ccc(COc2ccc([N+](=O)[O-])cc2)cc1OC
T/C (endpoint: mean survival time, dose: 75.0 mg/kg/injection, schedule: Q04DX002 (ip), vehicle: saline with Tween-80): 87 % of control
T/C (endpoint: mean survival time, dose: 150.0 mg/kg/injection, schedule: Q04DX002 (ip), vehicle: saline with Tween-80): 102 % of control

COc1cc2c3c(c1)-c1c(ccc(OC)c1OC)CC3N(CCCl)CC2 (stereo not drawn)
T/C (endpoint: mean survival time, dose: 25.0 mg/kg/injection, schedule: Q04DX003 (ip), vehicle: water): 98 % of control
T/C (endpoint: mean survival time, dose: 50.0 mg/kg/injection, schedule: Q04DX003 (ip), vehicle: water): 105 % of control

CC1(C)CC(=O)c2cc([C@@H]3OC[C@@H](O)[C@H]3O)[nH]c2C1
T/C (endpoint: median survival time, dose: 12.5 mg/kg/injection, schedule: Q01DX005 (ip), vehicle: water): 101 % of control
T/C (endpoint: median survival time, dose: 25.0 mg/kg/injection, schedule: Q01DX005 (ip), vehicle: water): 101 % of control
T/C (endpoint: median survival time, dose: 50.0 mg/kg/injection, schedule: Q01DX005 (ip), vehicle: water): 101 % of control
T/C (endpoint: median survival time, dose: 100.0 mg/kg/injection, schedule: Q01DX005 (ip), vehicle: water): 94 % of control
T/C (endpoint: median survival time, dose: 200.0 mg/kg/injection, schedule: Q01DX005 (ip), vehicle: water): 96 % of control

CCCCNC(=O)C1CC2c3cccc4[nH]cc(c34)CC2N(C)C1 (stereo not drawn)
T/C [2]: 88 % of control
T/C [3]: 91 % of control

O=[N+]([O-])c1cc(Cl)ccc1NC(Nc1ccc(Cl)cc1[N+](=O)[O-])C(Cl)(Cl)Cl
T/C [8]: 101 % of control
T/C [9]: 106 % of control
T/C [10]: 101 % of control

Nc1ccc(Cl)c([N+](=O)[O-])c1
T/C (endpoint: mean survival time, dose: 100.0 mg/kg/injection, schedule: Q04DX003 (ip), vehicle: Klucel (hydroxypropylcellulose) (HPC)): 94 % of control
T/C (endpoint: mean survival time, dose: 200.0 mg/kg/injection, schedule: Q04DX003 (ip), vehicle: Klucel (hydroxypropylcellulose) (HPC)): 91 % of control
T/C (endpoint: mean survival time, dose: 400.0 mg/kg/injection, schedule: Q04DX003 (ip), vehicle: Klucel (hydroxypropylcellulose) (HPC)): 89 % of control

Nc1c([N+](=O)[O-])cncc1[N+](=O)[O-]
T/C (endpoint: mean survival time, dose: 6.25 mg/kg/injection, schedule: Q01DX009 (ip), vehicle: saline sonified): 102 % of control
T/C (endpoint: mean survival time, dose: 6.25 mg/kg/injection, schedule: Q04DX003 (ip), vehicle: saline with Tween-80): 98 % of control
T/C (endpoint: mean survival time, dose: 12.5 mg/kg/injection, schedule: Q01DX009 (ip), vehicle: saline sonified): 98 % of control
T/C (endpoint: mean survival time, dose: 12.5 mg/kg/injection, schedule: Q04DX003 (ip), vehicle: saline with Tween-80): 102 % of control
T/C (endpoint: mean survival time, dose: 25.0 mg/kg/injection, schedule: Q01DX009 (ip), vehicle: saline sonified): 98 % of control
T/C [1]: 102 % of control

CC1(CCC2(C)OCCO2)OCCO1
T/C [4]: 93 % of control
T/C [5]: 101 % of control
T/C (endpoint: mean survival time, dose: 400.0 mg/kg/injection, schedule: Q04DX002 (ip), vehicle: saline with Tween-80): 93 % of control

O=C(N/N=C\c1ccc(Cl)cc1)c1ccccc1
T/C (endpoint: mean survival time, dose: 50.0 mg/kg/injection, schedule: Q01DX009 (ip), vehicle: saline with Tween-80): 94 % of control
T/C [8]: 101 % of control
T/C [9]: 95 % of control

Cn1c(CC(O)(C(F)(F)F)C(F)(F)F)cc(=O)n1-c1ccccc1
T/C [3]: 95 % of control
T/C [7]: 94 % of control

C=C(C)COc1c(C)cc(C)cc1[N+](=O)[O-]
T/C [8]: 98 % of control
T/C [9]: 100 % of control
T/C [10]: 104 % of control

O=[N+]([O-])c1ccc2c(c1)C(Br)c1cc(Br)ccc1-2 (stereo not drawn)
T/C [8]: 93 % of control
T/C [3]: 100 % of control
T/C [9]: 88 % of control
T/C [7]: 100 % of control
T/C [10]: 90 % of control
T/C [11]: 92 % of control

CC1C(c2ccccc2)OC(N2CCOCC2)C(C)(C)CN1C (stereo not drawn)
T/C (endpoint: median survival time, dose: 50.0 mg/kg/injection, schedule: Q01DX009 (ip), vehicle: saline with Tween-80): 100 % of control
T/C (endpoint: median survival time, dose: 100.0 mg/kg/injection, schedule: Q01DX009 (ip), vehicle: saline with Tween-80): 102 % of control
T/C (endpoint: median survival time, dose: 200.0 mg/kg/injection, schedule: Q01DX009 (ip), vehicle: saline with Tween-80): 102 % of control
T/C (endpoint: median survival time, dose: 400.0 mg/kg/injection, schedule: Q01DX009 (ip), vehicle: saline with Tween-80): 97 % of control

O=[N+]([O-])O.[NH-]C1CCCCC1[NH-].[NH-]C1CCCCC1[NH-].[OH-].[OH-].[Pt+4].[Pt+4] (stereo not drawn)
T/C (endpoint: mean survival time, dose: 1.25 mg/kg/injection, schedule: Q04DX003 (ip), vehicle: water): 110 % of control

[O-][n+]1c2cccc(O)c2[n+]([O-])c2cccc(O)c21
T/C [3]: 91 % of control
T/C [7]: 100 % of control
T/C [11]: 103 % of control

C[N+]([O-])(CCO)Cc1ccccc1 (stereo not drawn)
T/C (endpoint: mean survival time, dose: 50.0 mg/kg/injection, schedule: Q01DX001 (ip), vehicle: carboxymethylcellulose (CMC)): 102 % of control
T/C (endpoint: mean survival time, dose: 100.0 mg/kg/injection, schedule: Q01DX001 (ip), vehicle: carboxymethylcellulose (CMC)): 112 % of control
T/C (endpoint: mean survival time, dose: 200.0 mg/kg/injection, schedule: Q01DX001 (ip), vehicle: carboxymethylcellulose (CMC)): 112 % of control
T/C (endpoint: mean survival time, dose: 400.0 mg/kg/injection, schedule: Q01DX001 (ip), vehicle: carboxymethylcellulose (CMC)): 112 % of control

COc1cc2ccc(CC(=S)N3CCOCC3)cc2cc1OC
T/C [8]: 98 % of control
T/C [3]: 104 % of control
T/C [9]: 93 % of control
T/C [7]: 95 % of control
T/C [10]: 96 % of control

NC(=O)C(Cl)(Cl)C(Cl)(Cl)C(Cl)(Cl)Cl
T/C [8]: 100 % of control
T/C [3]: 100 % of control
T/C [9]: 93 % of control
T/C [7]: 95 % of control
T/C [10]: 90 % of control
T/C [11]: 94 % of control

O=C(NO)c1ccc(O)cc1
T/C (endpoint: mean survival time, dose: 267.0 mg/kg/injection, schedule: Q01DX009 (ip), vehicle: saline): 120 % of control

[Cl][Pt+2][Cl].[NH-]CC(C[NH-])(Cc1ccccc1)Cc1ccccc1
T/C (endpoint: mean survival time, dose: 3.12 mg/kg/injection, schedule: Q04DX003 (ip), vehicle: saline): 97 % of control
T/C (endpoint: mean survival time, dose: 6.25 mg/kg/injection, schedule: Q04DX003 (ip), vehicle: saline): 103 % of control and 111 % of control
T/C (endpoint: mean survival time, dose: 12.5 mg/kg/injection, schedule: Q04DX003 (ip), vehicle: saline): 115 % of control and 111 % of control
T/C (endpoint: mean survival time, dose: 25.0 mg/kg/injection, schedule: Q04DX003 (ip), vehicle: saline): 115 % of control
T/C [6]: 172 % of control

Nc1nc(=S)n(C2OCC(O)C(O)C2O)c2ccccc12 (stereo not drawn)
T/C (endpoint: mean survival time, dose: 12.5 mg/kg/injection, schedule: Q01DX005 (ip), vehicle: distilled water + Tween-80): 97 % of control
T/C (endpoint: mean survival time, dose: 25.0 mg/kg/injection, schedule: Q01DX005 (ip), vehicle: distilled water + Tween-80): 96 % of control
T/C (endpoint: mean survival time, dose: 50.0 mg/kg/injection, schedule: Q01DX005 (ip), vehicle: distilled water + Tween-80): 96 % of control
T/C (endpoint: mean survival time, dose: 100.0 mg/kg/injection, schedule: Q01DX005 (ip), vehicle: distilled water + Tween-80): 96 % of control
T/C (endpoint: mean survival time, dose: 200.0 mg/kg/injection, schedule: Q01DX005 (ip), vehicle: distilled water + Tween-80): 91 % of control

O=C1C=CC(=O)N1c1cc(Cl)ccc1Cl
T/C [3]: 93 % of control
T/C [7]: 93 % of control

From PubChem BioAssay AID256 (DTP/NCI, 2004)
